Source: PubChem BioAssay AID1963966 (Molecular Pharmacology Branch, DTP, NCI, 2024)

Tested on: 935938-334-R-J1-PDC spheroids with HUVEC/MSC, viability
Experiment: Anticancer human tumor 935938-334-R-J1-PDC patient-derived small intestine adenocarcinoma cell line growth inhibition [PI3K]
Details: for IC50: curve of first compound; for viability, T/C: stronger effect = lower value
How it was run: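 Targeted small molecules plus PI3K inhibitors, half-log dose series from Cmax (default top 10 microM), were applied to heterotypic spheroids of cancer cells with HUVEC and MSCs. Viability indicated growth inhibition.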

[1] = second compound 0.0316 µM, first compound 0.0316 µM
[2] = second compound 0.0316 µM, first compound 0.1 µM
[3] = second compound 0.0316 µM, first compound 0.316 µM
[4] = second compound 0.0316 µM, first compound 1 µM
[5] = second compound 0.0316 µM, first compound 3.16 µM
[6] = second compound 0.0316 µM, first compound 10 µM
[7] = second compound 0.1 µM, first compound 0.0316 µM
[8] = second compound 0.1 µM, first compound 0.1 µM
[9] = second compound 0.1 µM, first compound 0.316 µM
[10] = second compound 0.1 µM, first compound 1 µM
[11] = second compound 0.1 µM, first compound 3.16 µM
[12] = second compound 0.1 µM, first compound 10 µM
[13] = second compound 0.316 µM, first compound 0.0316 µM
[14] = second compound 0.316 µM, first compound 0.1 µM
[15] = second compound 0.316 µM, first compound 0.316 µM
[16] = second compound 0.316 µM, first compound 1 µM
[17] = second compound 0.316 µM, first compound 3.16 µM
[18] = second compound 0.316 µM, first compound 10 µM
[19] = second compound 1 µM, first compound 0.0316 µM
[20] = second compound 1 µM, first compound 0.1 µM
[21] = second compound 1 µM, first compound 0.316 µM
[22] = second compound 1 µM, first compound 1 µM
[23] = second compound 1 µM, first compound 3.16 µM
[24] = second compound 1 µM, first compound 10 µM
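Also: compound exposure lasted seven days before viability was read.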
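For viability, T/C in this document: percent of vehicle DMSO treated spheroid viability so 100% = untreated.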

## CC1(C)CCC(Nc2ncc(C(F)(F)F)c(-c3c[nH]c4c(P(C)(C)=O)c(C#N)ccc34)n2)CN1 (stereo unspecified) + COc1c(OCCCN2CCOCC2)ccc2c3n(c(=NC(=O)c4cnc(N)nc4)nc12)CCN3
Second compound 0.00316 µM
  IC50: < 31.6 nM
Second compound 0.01 µM
  IC50: < 31.6 nM
Second compound 0.0316 µM
  IC50: < 31.6 nM
Second compound 0.1 µM
  IC50: < 31.6 nM
Second compound 0.316 µM
  IC50: < 31.6 nM
Second compound 1 µM
  IC50: < 31.6 nM
Second compound 0.00316 µM, first compound 0.0316 µM
  viability, T/C: 47.8%
Second compound 0.00316 µM, first compound 0.1 µM
  viability, T/C: 35.4%
Second compound 0.00316 µM, first compound 0.316 µM
  viability, T/C: 35%
Second compound 0.00316 µM, first compound 1 µM
  viability, T/C: 33%
Second compound 0.00316 µM, first compound 3.16 µM
  viability, T/C: 37.3%
Second compound 0.00316 µM, first compound 10 µM
  viability, T/C: 8.87%
Second compound 0.01 µM, first compound 0.0316 µM
  viability, T/C: 40.9%
Second compound 0.01 µM, first compound 0.1 µM
  viability, T/C: 34.9%
Second compound 0.01 µM, first compound 0.316 µM
  viability, T/C: 30.1%
Second compound 0.01 µM, first compound 1 µM
  viability, T/C: 34.6%
Second compound 0.01 µM, first compound 3.16 µM
  viability, T/C: 29.6%
Second compound 0.01 µM, first compound 10 µM
  viability, T/C: 8.72%
[1]
  viability, T/C: 30.4%
[2]
  viability, T/C: 35.4%
[3]
  viability, T/C: 33.1%
[4]
  viability, T/C: 27.5%
[5]
  viability, T/C: 34.2%
[6]
  viability, T/C: 6.35%
[7]
  viability, T/C: 35%
[8]
  viability, T/C: 22.9%
[9]
  viability, T/C: 20.2%
[10]
  viability, T/C: 23.8%
[11]
  viability, T/C: 25.7%
[12]
  viability, T/C: 6.52%
[13]
  viability, T/C: 25%
[14]
  viability, T/C: 21%
[15]
  viability, T/C: 22.8%
[16]
  viability, T/C: 22.1%
[17]
  viability, T/C: 23.3%
[18]
  viability, T/C: 4.96%
[19]
  viability, T/C: 18.2%
[20]
  viability, T/C: 24.7%
[21]
  viability, T/C: 15.8%
[22]
  viability, T/C: 24.9%
[23]
  viability, T/C: 19%
[24]
  viability, T/C: 3.4%

## CNC(=O)c1ccc(N2C(=S)N(c3ccc(C#N)c(C(F)(F)F)c3)C(=O)C2(C)C)cc1F + Cc1nc(NC(=O)N2CCCC2C(N)=O)sc1-c1ccnc(C(C)(C)C(F)(F)F)c1
Second compound 0.0316 µM
  IC50: > 10000 nM
Second compound 0.1 µM
  IC50: > 10000 nM
Second compound 0.316 µM
  IC50: > 10000 nM
Second compound 1 µM
  IC50: > 10000 nM
Second compound 3.16 µM
  IC50: < 31.6 nM
Second compound 10 µM
  IC50: 162 nM
[1]
  viability, T/C: 111%
[2]
  viability, T/C: 84.3%
[3]
  viability, T/C: 84.9%
[4]
  viability, T/C: 91.9%
[5]
  viability, T/C: 100%
[6]
  viability, T/C: 88%
[7]
  viability, T/C: 81.7%
[8]
  viability, T/C: 88.7%
[9]
  viability, T/C: 65.5%
[10]
  viability, T/C: 84.4%
[11]
  viability, T/C: 76.8%
[12]
  viability, T/C: 62.9%
[13]
  viability, T/C: 103%
[14]
  viability, T/C: 59.7%
[15]
  viability, T/C: 81.9%
[16]
  viability, T/C: 69.6%
[17]
  viability, T/C: 77%
[18]
  viability, T/C: 56.7%
[19]
  viability, T/C: 75.2%
[20]
  viability, T/C: 76.8%
[21]
  viability, T/C: 70.2%
[22]
  viability, T/C: 101%
[23]
  viability, T/C: 56.2%
[24]
  viability, T/C: 70.7%
Second compound 3.16 µM, first compound 0.0316 µM
  viability, T/C: 39.6%
Second compound 3.16 µM, first compound 0.1 µM
  viability, T/C: 43.9%
Second compound 3.16 µM, first compound 0.316 µM
  viability, T/C: 51%
Second compound 3.16 µM, first compound 1 µM
  viability, T/C: 51.5%
Second compound 3.16 µM, first compound 3.16 µM
  viability, T/C: 47%
Second compound 3.16 µM, first compound 10 µM
  viability, T/C: 47.3%
Second compound 10 µM, first compound 0.0316 µM
  viability, T/C: 45.6%
Second compound 10 µM, first compound 0.1 µM
  viability, T/C: 59.7%
Second compound 10 µM, first compound 0.316 µM
  viability, T/C: 46.2%
Second compound 10 µM, first compound 1 µM
  viability, T/C: 39.3%
Second compound 10 µM, first compound 3.16 µM
  viability, T/C: 38.5%
Second compound 10 µM, first compound 10 µM
  viability, T/C: 34.3%

## Cn1cnc2c(F)c(Nc3ccc(Br)cc3Cl)c(C(=O)NOCCO)cc21 + Cc1nc(NC(=O)N2CCCC2C(N)=O)sc1-c1ccnc(C(C)(C)C(F)(F)F)c1
Second compound 0.0316 µM
  IC50: 37 nM
Second compound 0.1 µM
  IC50: 29.7 nM
Second compound 0.316 µM
  IC50: 29 nM
Second compound 1 µM
  IC50: 11.6 nM
Second compound 3.16 µM
  IC50: < 9.49 nM
Second compound 10 µM
  IC50: < 9.49 nM
Second compound 0.0316 µM, first compound 0.00949 µM
  viability, T/C: 62%
Second compound 0.0316 µM, first compound 0.03 µM
  viability, T/C: 54.8%
Second compound 0.0316 µM, first compound 0.0949 µM
  viability, T/C: 32.8%
Second compound 0.0316 µM, first compound 0.3 µM
  viability, T/C: 31.1%
Second compound 0.0316 µM, first compound 0.949 µM
  viability, T/C: 20.4%
Second compound 0.0316 µM, first compound 3 µM
  viability, T/C: 22.9%
Second compound 0.1 µM, first compound 0.00949 µM
  viability, T/C: 73.7%
Second compound 0.1 µM, first compound 0.03 µM
  viability, T/C: 44.7%
Second compound 0.1 µM, first compound 0.0949 µM
  viability, T/C: 41.4%
Second compound 0.1 µM, first compound 0.3 µM
  viability, T/C: 25.8%
Second compound 0.1 µM, first compound 0.949 µM
  viability, T/C: 23.6%
Second compound 0.1 µM, first compound 3 µM
  viability, T/C: 17.2%
Second compound 0.316 µM, first compound 0.00949 µM
  viability, T/C: 62.9%
Second compound 0.316 µM, first compound 0.03 µM
  viability, T/C: 48.5%
Second compound 0.316 µM, first compound 0.0949 µM
  viability, T/C: 36.9%
Second compound 0.316 µM, first compound 0.3 µM
  viability, T/C: 23%
Second compound 0.316 µM, first compound 0.949 µM
  viability, T/C: 18.6%
Second compound 0.316 µM, first compound 3 µM
  viability, T/C: 17.3%
Second compound 1 µM, first compound 0.00949 µM
  viability, T/C: 52.9%
Second compound 1 µM, first compound 0.03 µM
  viability, T/C: 37%
Second compound 1 µM, first compound 0.0949 µM
  viability, T/C: 26.4%
Second compound 1 µM, first compound 0.3 µM
  viability, T/C: 19.4%
Second compound 1 µM, first compound 0.949 µM
  viability, T/C: 14.2%
Second compound 1 µM, first compound 3 µM
  viability, T/C: 12.6%
Second compound 3.16 µM, first compound 0.00949 µM
  viability, T/C: 30.8%
Second compound 3.16 µM, first compound 0.03 µM
  viability, T/C: 39.6%
Second compound 3.16 µM, first compound 0.0949 µM
  viability, T/C: 19.6%
Second compound 3.16 µM, first compound 0.3 µM
  viability, T/C: 17.2%
Second compound 3.16 µM, first compound 0.949 µM
  viability, T/C: 18.5%
Second compound 3.16 µM, first compound 3 µM
  viability, T/C: 11.1%
Second compound 10 µM, first compound 0.00949 µM
  viability, T/C: 28.7%
Second compound 10 µM, first compound 0.03 µM
  viability, T/C: 20.5%
Second compound 10 µM, first compound 0.0949 µM
  viability, T/C: 17.2%
Second compound 10 µM, first compound 0.3 µM
  viability, T/C: 14.8%
Second compound 10 µM, first compound 0.949 µM
  viability, T/C: 14.8%
Second compound 10 µM, first compound 3 µM
  viability, T/C: 12.1%
